Patent US20170334919A1, “2-((4-AMINO-3-(3-FLUORO-5-HYDROXYPHENYL)-1H-PYRAZOLO[3,4-D]PYRIMIDIN-1 -YL)METHYL)-3-(2-(TRIFLUORO-MET HYL)BENZYL)QUINAZOLIN-4(3H)-ONE DERIVATIVES AND THEIR USE AS PHOSPHOINOSITIDE 3-KINASE INHIBITORS” (RESPIVERT LTD., priority 2013, published 2017)

What was measured:
[1] = test system: poly-I:C-induced cell accumulation in mice airways; assay: Poly-I:C-induced cell accumulation in mice; type: in vivo, A/J mice
Procedure: Specific pathogen-free A/J mice (males, 5 weeks old) were dosed with poly (I:C)-LMW (1 mg/mL, 40 μL) (InvivoGen, San Diego, Calif., USA) intranasally twice daily for 3 days under anaesthasia (3% isoflurane). Test substances were dosed intra-nasally (50 μL in 10% DMSO/isotonic saline vehicle) 2 hr before each poly-I:C treatment. At 24 hr after the last poly-I:C challenge, animals were anesthetized, the trachea was cannulated and bronchial alveolar lavage (BAL) was obtained by instilling into and then withdrawing from the lungs, isotonic saline (100 mL/kg). Total cell numbers in the BALF samples were measured using a haemocytometer under a phase-contrast microscope.
The proportions of alveolar macrophages and neutrophils were determined by FACS analysis using anti-mouse MOMA2-FITC (macrophage) or anti-mouse 7/4-FITC (neutrophil). Cells were suspended in PBS and incubated with anti-MOMA2-FITC (2 μg/mL, Catalogue no SM065F, Acris Antibodies GmbH, Herford, Germany) or anti-7/4-FITC (2 μg/mL, Catalogue no CL050F, Acris Antibodies GmbH, Herford, Germany) for 30 min at 30° C., and then counterstained with propidium iodide (2 μg/mL) to allow exclusion of necrotic cells. The cells were washed with PBS, and transferred to FACS tubes. Samples was set in a flow cytometer (ALTRA II; Beckman Coulter Japan, Tokyo, Japan), and a single-parameter FL2 [PMT2] (FITC) histogram with log x-axis was plotted to illustrate relative intensity of FITC. Data files were stored for subsequent analysis using Kaluza analysis software (ver. 1.2) to calculate the proportion of each cell type.

[2] = test system: cigarette smoke-induced cell accumulation and biomarkers in murine BALF; assay: Cigarette smoke model; type: in vivo, A/J mice
Procedure: A/J mice (males, 5 weeks old) were exposed to cigarette smoke (4% cigarette smoke, diluted with compressed air) for 30 min/day for 11 days using a Tobacco Smoke Inhalation Experiment System for small animals (Model SIS-CS; Sibata Scientific Technology, Tokyo, Japan). Test substances were administered once daily for 3 days after the final cigarette smoke exposure (intra-nasal dose comprising 35 μL of solution in 50% DMSO/isotonic saline).
At 12 hr after administration of the last dose, animals were anesthetized, the trachea was cannulated and bronchial alveolar lavage (BAL) was carried out by the instillation into and then withdawal from the lungs, of PBS (100 mL/kg). Total cell numbers in the BALF samples were measured using a haemocytometer under a phase-contrast microscope. The proportions of alveolar macrophages and neutrophils were determined by FACS analysis using anti-mouse MOMA2-FITC (macrophage) or anti-mouse 7/4 (neutrophil).
Cells were suspended in PBS and were incubated with anti-MOMA2-FITC (2 μg/mL, Catalogue no SM065F, Acris Antibodies GmbH, Herford, Germany) or anti-7/4-FITC (2 μg/mL, Catalogue no CL050F, Acris Antibodies GmbH, Herford, Germany) for 30 min at 30° C., and also counterstained with propidium iodide (2 μg/mL) to allow exclusion of necrotic cells. The cells were washed with PBS, and transferred to FACS tubes. Samples was set in a flow cytometer (ALTRA II; Beckman Coulter Japan, Tokyo, Japan), and a single-parameter FL2 [PMT2] (FITC) histogram with log x-axis was plotted to illustrate relative intensity of FITC.
Data files are stored for subsequent analysis using Kaluza analysis software (ver. 1.2) to calculate the proportion of each cell type. The levels of CXCL1(KC), MCP1, TNFα, IL-17 or osteopontin in BALF were determined using Quentikine® mouse KC, MCP1, TNFα, IL-17 or osteopontin ELISA kit (R&D systems, Inc., Minneapolis, Minn., USA). The presence of malondialdehyde was measured using OxiSelect® TBARS Assay Kit (MDA Quantitation; Cell Biolabs Inc, San Diego, Calif., USA).

[3] = test system: ovalbumin-induced airway eosinophilia and neutrophilia in ovalbumin sensitized mice; assay: Ovalbumin-induced airway eosinophil and neutrophil accumulation in mice; type: in vivo, BALB/c mice; conditions: 2 hr prior to final OVA challenge
Procedure: BALB/c mice (6-8 weeks old) were immunized with OVA (10 μg/mouse i.p.) on days 0 and 7. In order to elicit a local inflammatory response in the lung, mice were repeatedly challenged between days 13-15 with a nebulised solution of ovalbumin (10 mg/mL, 30 min exposure, De Vilibiss Ultraneb 2000). On day 17 each animal received via intra-tracheal administration of either vehicle or test compound 2 hr prior to the final OVA challenge. Animals were anaesthetized 8 hr later before undergoing a tracheotomy. BAL was obtained by instilling PBS (1 mL) into the lungs, which was then withdrawn. This procedure was repeated to provide approximately 2 mL of lavage fluid. Total cell numbers in the BALF samples were measured using a haemocytometer. Cytospin smears of the BALF samples were prepared by centrifugation at 200 rpm for 5 min at RT and stained using a DiffQuik stain system (Dade Behring) for differential cell counts. Cells were counted using oil immersion microscopy. Data is expressed as differential number of cells per mL of […] (mean±S.E.M).

[4] = test system: LPS-induced airway neutrophilia in rats; assay: LPS-induced airway neutrophil accumulation in rats; type: in vivo
Procedure: Non-fasted rats were dosed with either vehicle or the test compound by intra-tracheal administration (dose volume 100 μL) at time points T=−2 h, −8 h, or −12 h with respect to the start of LPS treatment. The LPS solution (0.3 mg/mL) was aerosolised using a De Vibliss ultrasonic nebuliser 2000 (7 mL during 30 min). At eight hr after LPS challenge, the trachea was cannulated and bronchoalveolar lavage fluid (BALF) extracted by infusing and then withdrawing PBS (1 mL) into the lungs via the tracheal catheter. This procedure was repeated to provide approximately 2 mL of lavage fluid.
Total cell numbers in the BALF samples were measured using a Countess automated cell counter (Invitrogen). Cytospin smears of the BALF samples were prepared by centrifugation at 1200 rpm for 2 min at RT and stained using a DiffQuik stain system (Dade Behring) for differential cell counts. Cells were counted using oil immersion microscopy. Data are expressed as neutrophil number of cells per mL of BALF (mean±S.E.M).

[5] = 0.002 mg/mL intra-nasal + Poly I:C
[6] = 0.02 mg/mL intra-nasal + Poly I:C
[7] = 0.2 mg/mL intra-nasal + Poly I:C
[8] = CS + Compound (I) 0.02 mg/mL intra-nasal
[9] = CS + Compound (I) 0.2 mg/mL intra-nasal
[10] = CS + Compound (I) 2 mg/mL intra-nasal
[11] = 0.2 mg/mL intra-tracheal, pre-dose time 12 h

Compound: COCCOCCOCC#Cc1cccc2nc(Cn3nc(-c4cc(O)cc(F)c4)c4c(N)ncnc43)n(Cc3ccccc3C(F)(F)F)c(=O)c12 [Compound (I), 2-((4-Amino-3-(3-fluoro-5-hydroxyphenyl)-1H-pyrazolo[3,4-d]pyrimidin-1-yl)methyl)-5-(3-(2-(2-methoxyethoxy)ethoxy)prop-1-yn-1-yl)-3-(2-(trifluoromethyl)benzyl)quinazolin-4(3H)-one]
- Cell numbers in BALF, Macrophages, % inhibition [1, 5]: 49%
- Cell numbers in BALF, Neutrophils, % inhibition [1, 5]: 0.3 (43) %
- Cell numbers in BALF, Macrophages, % inhibition [1, 6]: 0.3 (69) %
- Cell numbers in BALF, Neutrophils, % inhibition [1, 6]: 65%
- Cell numbers in BALF, Macrophages, % inhibition [1, 7]: 0.3 (79) %
- Cell numbers in BALF, Neutrophils, % inhibition [1, 7]: 0.2 (77) %
- potency versus compound A, poly-I:C-induced macrophage and neutrophil accumulation into BALF ([1]; direct comparison, FIG. 1): significantly greater potency than compound A
- Cell numbers in BAL, Macrophages, % inhibition [2, 8]: 32%
- Cell numbers in BAL, Neutrophils, % inhibition [2, 8]: 0.2 (26) %
- Cell numbers in BAL, Macrophages, % inhibition [2, 9]: 0.2 (63) %
- Cell numbers in BAL, Neutrophils, % inhibition [2, 9]: 54%
- Cell numbers in BAL, Macrophages, % inhibition [2, 10]: 0.3 (79) %
- Cell numbers in BAL, Neutrophils, % inhibition [2, 10]: 0.1 (68) %
- potency versus compound A, cigarette-smoke induced cell accumulation in murine BALF ([2]; contemporaneous study, FIG. 2): more potent inhibitor of cigarette-smoke induced cell accumulation in murine BALF than is compound A
- Cell numbers in BALF, Eosinophils, % inhibition ([3]; 0.05 mg/mL intra-tracheal): 3.2 (20) %
- Cell numbers in BALF, Neutrophils, % inhibition ([3]; 0.05 mg/mL intra-tracheal): 0.4 (18) %
- Cell numbers in BALF, Eosinophils, % inhibition ([3]; 0.2 mg/mL intra-tracheal): 0.9 (85) %
- Cell numbers in BALF, Neutrophils, % inhibition ([3]; 0.2 mg/mL intra-tracheal): 0.5 (70) %
- Cell numbers in BALF, Eosinophils, % inhibition ([3]; 1 mg/mL intra-tracheal): 91%
- Cell numbers in BALF, Neutrophils, % inhibition ([3]; 1 mg/mL intra-tracheal): 80%
- Neutrophil numbers in BALF, % inhibition ([4]; 0.05 mg/mL intra-tracheal, pre-dose time 2 hr): 2.3 (9) %
- Neutrophil numbers in BALF, % inhibition ([4]; 0.2 mg/mL intra-tracheal, pre-dose time 2 hr): 1.6 (58) %
- Neutrophil numbers in BALF, % inhibition ([4]; 0.2 mg/mL intra-tracheal, pre-dose time 8 hr): 33%
- Neutrophil numbers in BALF (mean ± SEM) [4, 11]: 13.6 ± 2.7 ×10^5/mL
- Neutrophil numbers in BALF, % inhibition [4, 11]: 10%
- Neutrophil numbers in BALF, % inhibition ([4]; 1.0 mg/mL intra-tracheal, pre-dose time 2 hr): 73%
